According to ChEMBL document CHEMBL5653615 (J Biol Chem, 2013):

Key:
[1] = target: T1, Ephrin type-A receptor 8 (Homo sapiens) (UniProt P29322); assay: Inhibition of human EPHA8 at 500 nM by HotSpot assay relative to control
T1 sequence (whole entry): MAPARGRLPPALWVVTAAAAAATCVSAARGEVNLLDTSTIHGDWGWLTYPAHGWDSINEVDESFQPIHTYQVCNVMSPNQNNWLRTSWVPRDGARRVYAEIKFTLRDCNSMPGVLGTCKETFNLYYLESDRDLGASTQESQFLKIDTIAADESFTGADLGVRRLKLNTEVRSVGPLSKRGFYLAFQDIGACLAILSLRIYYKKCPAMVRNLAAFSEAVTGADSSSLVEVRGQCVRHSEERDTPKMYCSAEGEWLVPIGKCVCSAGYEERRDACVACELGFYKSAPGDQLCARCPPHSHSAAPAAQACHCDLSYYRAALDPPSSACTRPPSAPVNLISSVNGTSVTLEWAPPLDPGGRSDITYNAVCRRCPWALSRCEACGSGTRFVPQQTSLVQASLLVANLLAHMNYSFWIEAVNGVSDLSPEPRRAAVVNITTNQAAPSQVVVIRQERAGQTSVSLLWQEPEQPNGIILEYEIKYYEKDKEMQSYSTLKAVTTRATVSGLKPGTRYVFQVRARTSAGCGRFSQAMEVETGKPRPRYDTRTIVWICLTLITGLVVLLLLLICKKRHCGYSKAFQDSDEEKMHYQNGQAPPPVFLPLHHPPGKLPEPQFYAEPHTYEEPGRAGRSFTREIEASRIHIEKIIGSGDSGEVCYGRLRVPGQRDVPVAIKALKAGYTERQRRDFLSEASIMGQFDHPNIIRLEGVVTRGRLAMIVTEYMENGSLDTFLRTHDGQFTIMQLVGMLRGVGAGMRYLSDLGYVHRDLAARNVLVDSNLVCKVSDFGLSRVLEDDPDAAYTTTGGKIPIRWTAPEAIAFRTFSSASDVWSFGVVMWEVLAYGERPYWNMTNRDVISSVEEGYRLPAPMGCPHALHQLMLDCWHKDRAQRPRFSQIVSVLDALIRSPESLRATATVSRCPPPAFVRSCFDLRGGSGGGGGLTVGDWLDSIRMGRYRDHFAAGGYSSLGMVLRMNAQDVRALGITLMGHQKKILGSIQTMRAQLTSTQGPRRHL

[2] = target: T2, Serine/threonine-protein kinase 3 (Homo sapiens) (UniProt Q13188); assay: Inhibition of human STK3 at 500 nM by HotSpot assay relative to control
T2 sequence (whole entry): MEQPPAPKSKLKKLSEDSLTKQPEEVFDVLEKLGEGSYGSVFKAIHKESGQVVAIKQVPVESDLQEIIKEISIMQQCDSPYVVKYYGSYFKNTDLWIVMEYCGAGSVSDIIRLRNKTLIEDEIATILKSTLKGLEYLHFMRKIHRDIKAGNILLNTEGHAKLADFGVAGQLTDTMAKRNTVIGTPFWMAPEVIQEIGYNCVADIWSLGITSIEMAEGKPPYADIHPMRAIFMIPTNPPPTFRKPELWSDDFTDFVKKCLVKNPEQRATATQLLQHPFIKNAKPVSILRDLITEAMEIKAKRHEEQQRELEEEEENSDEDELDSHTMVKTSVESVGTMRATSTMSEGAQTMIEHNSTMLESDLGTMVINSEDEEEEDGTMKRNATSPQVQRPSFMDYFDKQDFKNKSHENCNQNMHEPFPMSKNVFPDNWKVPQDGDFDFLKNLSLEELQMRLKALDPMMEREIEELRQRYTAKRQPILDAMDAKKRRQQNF

[3] = target: T3, Mitogen-activated protein kinase 12 (Homo sapiens) (UniProt P53778); assay: Inhibition of human P38g at 500 nM by HotSpot assay relative to control
T3 sequence (whole entry): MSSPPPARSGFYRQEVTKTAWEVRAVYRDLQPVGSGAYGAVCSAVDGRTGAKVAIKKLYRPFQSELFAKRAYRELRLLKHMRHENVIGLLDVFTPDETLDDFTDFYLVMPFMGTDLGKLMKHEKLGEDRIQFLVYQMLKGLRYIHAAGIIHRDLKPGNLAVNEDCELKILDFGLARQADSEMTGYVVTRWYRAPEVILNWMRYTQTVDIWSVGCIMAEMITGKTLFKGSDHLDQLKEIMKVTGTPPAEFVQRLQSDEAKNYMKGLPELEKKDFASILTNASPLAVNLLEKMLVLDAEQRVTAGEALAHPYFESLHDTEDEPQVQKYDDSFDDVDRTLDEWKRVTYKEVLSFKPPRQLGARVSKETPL

[4] = target: T4, Serine/threonine-protein kinase TAO1 (Homo sapiens) (UniProt Q7L7X3); assay: Inhibition of human TAOK1 at 500 nM by HotSpot assay relative to control
T4 sequence (whole entry): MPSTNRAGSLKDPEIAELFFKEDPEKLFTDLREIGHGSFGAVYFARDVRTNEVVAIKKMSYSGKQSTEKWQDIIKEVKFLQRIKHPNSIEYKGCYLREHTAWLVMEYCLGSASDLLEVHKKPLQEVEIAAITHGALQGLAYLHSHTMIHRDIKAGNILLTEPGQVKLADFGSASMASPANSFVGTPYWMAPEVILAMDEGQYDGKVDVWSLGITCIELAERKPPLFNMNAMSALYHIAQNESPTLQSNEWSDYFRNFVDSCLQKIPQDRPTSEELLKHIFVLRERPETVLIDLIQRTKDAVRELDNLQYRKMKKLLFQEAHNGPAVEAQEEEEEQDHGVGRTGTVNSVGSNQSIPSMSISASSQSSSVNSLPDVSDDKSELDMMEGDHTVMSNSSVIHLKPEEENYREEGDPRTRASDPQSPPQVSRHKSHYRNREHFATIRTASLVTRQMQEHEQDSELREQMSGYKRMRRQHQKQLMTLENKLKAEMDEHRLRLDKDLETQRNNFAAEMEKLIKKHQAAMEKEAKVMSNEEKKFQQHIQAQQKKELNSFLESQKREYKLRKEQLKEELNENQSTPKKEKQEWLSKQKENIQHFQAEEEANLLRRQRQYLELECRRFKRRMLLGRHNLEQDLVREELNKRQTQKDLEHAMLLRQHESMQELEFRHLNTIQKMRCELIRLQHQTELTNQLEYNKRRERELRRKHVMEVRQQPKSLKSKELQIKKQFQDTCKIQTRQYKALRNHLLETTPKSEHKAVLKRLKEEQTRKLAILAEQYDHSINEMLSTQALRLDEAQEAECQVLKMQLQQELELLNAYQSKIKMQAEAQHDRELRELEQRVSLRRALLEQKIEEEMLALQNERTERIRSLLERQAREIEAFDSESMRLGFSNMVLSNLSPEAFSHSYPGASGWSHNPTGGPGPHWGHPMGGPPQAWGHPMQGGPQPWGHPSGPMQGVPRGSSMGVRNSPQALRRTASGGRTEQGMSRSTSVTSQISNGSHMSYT

Oc1n[nH]c2nnc(-c3c(-c4ccccc4)nn4ccccc34)cc12
inhibition [1]: -2.05% | inhibition [2]: 0.75% | inhibition [3]: -4.33% | inhibition [4]: 1.61%

Nc1n[nH]c2nnc(-c3c(-c4ccccc4)nn4ccccc34)cc12
inhibition [1]: -0.31% | inhibition [2]: -2.01% | inhibition [3]: -3.94% | inhibition [4]: 4.2%
